Experimental data: patent US20250353873A1, “COMPOUNDS AND METHODS FOR MODULATING APOE EXPRESSION” (Ionis Pharmaceuticals, Inc., priority 2024, published 2025)
Strand notation (5' to 3'): a small letter for the sugar, then the base; units joined by * are phosphorothioate-linked, units joined directly phosphodiester-linked; [ ] holds rarer units or linkages, { } end groups; capitals alone tell only the bases. [ms] = mesyl phosphoramidate linkage; e = 2'-O-(2-methoxyethyl) (MOE); k = constrained ethyl (cEt); [5mC] = 5-methylcytosine; d = 2'-deoxy (DNA)

Tests used:
[1] = system: human APOE RNA; test: Dose-dependent inhibition of human APOE RNA in HepG2 cells, electroporation, 50,000 cells per well, RT-PCR normalized to GAPDH (Example 4, Tables 8-10); type: cell-based; settings: for APOE RNA (% UTC) 1,280 nM: 24-hour treatment, 1,280 nM; for APOE RNA (% UTC) 3,200 nM: 24-hour treatment, 3,200 nM; for APOE RNA (% UTC) 8,000 nM: 24-hour treatment, 8,000 nM; for APOE RNA (% UTC) 20,000 nM: 24-hour treatment, 20,000 nM
Summary of the method: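 Readout is percent APOE RNA versus untreated controls, measured by RT-PCR (primer probe set RTS3073) and normalized to human GAPDH. Modified oligonucleotides were delivered by electroporation at varying doses into HepG2 cells plated at 50,000 per well.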

[2] = system: human APOE RNA; test: Activity in APOE C57BL/6NTac-Apoeem7250 knock-in mice, single ICV bolus, 16 weeks (Example 12); type: in vivo; settings: single ICV bolus 300 μg, 16 weeks post treatment, normalized to mouse Ppia
Summary of the method: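 A single 300 μg intracerebroventricular dose was given, with PBS-treated mice as reference; cortical and spinal cord tissue was taken 16 weeks later. RT-qPCR quantified human APOE RNA, Ppia-normalized, expressed relative to PBS animals (% control).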

[3] = system: human APOE RNA; test: Potency (dose response, ED50) in APOE C57BL/6NTac-Apoeem7250 knock-in mice, 4 weeks (Example 14); type: in vivo; settings: for ED 50 (μg) Cortex / ED 50 (μg) Spinal Cord: single ICV bolus, GraphPad Prism 10
Method: Modified oligonucleotides described above were tested in the APOE C57BL/6NTac-Apoeem7250 knock-in mouse model described above.
APOE C57BL/6NTac-Apoeem7250 knock-in mice were divided into groups of 3-4 mice each. A group of 3-4 mice received a single ICV bolus with PBS as a negative control.
Four weeks post treatment, mice were sacrificed, and RNA was extracted from cortical brain tissue and spinal cord for quantitative real-time RT-PCR analysis of RNA expression of […] using human primer probe set RTS3073 (described herein above). APOE RNA levels were normalized to mouse Ppia. Mouse Ppia was amplified using primer probe set m_cyclo24 (described herein above). Results are presented as percent human APOE RNA relative to the amount of APOE RNA in PBS treated animals, (% control). N.C. indicates values that were not calculated. Each experiment is identified in separate tables below.
The half maximal effective dose (ED50) of each modified oligonucleotide was calculated using GraphPad Prism 10 software (GraphPad Software, San Diego, CA).

[4] = HepG2 cells, electroporation, 24-hour treatment, 5 nM, Table 8
[5] = HepG2 cells, electroporation, 24-hour treatment, 13 nM, Table 8
[6] = HepG2 cells, electroporation, 24-hour treatment, 33 nM, Table 8
[7] = HepG2 cells, electroporation, 24-hour treatment, 82 nM, Table 8
[8] = HepG2 cells, electroporation, 24-hour treatment, 205 nM, Table 8
[9] = HepG2 cells, electroporation, 24-hour treatment, 512 nM, Table 8
[10] = HepG2 cells, electroporation, Table 8
[11] = reduction of human APOE RNA, HepG2 cells, electroporation, 24-hour treatment, Table 8

Substance: 1778111: modified oligonucleotide complementary to human APOE RNA (eA*e[5mC]eTeTeG*kG*dT*dG[ms]dA[ms]dA*dT*d[5mC]*dT*dT*dT*dA[ms]eTeT*eA*eA; antisense) [compound 1778111]
- APOE RNA (% UTC) 5 nM [1, 4]: 75 % UTC
- APOE RNA (% UTC) 13 nM [1, 5]: 96 % UTC
- APOE RNA (% UTC) 33 nM [1, 6]: 73 % UTC
- APOE RNA (% UTC) 82 nM [1, 7]: 61 % UTC
- APOE RNA (% UTC) 205 nM [1, 8]: 53 % UTC
- APOE RNA (% UTC) 512 nM [1, 9]: 44 % UTC
- APOE RNA (% UTC) 1,280 nM [1, 10]: 27 % UTC
- APOE RNA (% UTC) 3,200 nM [1, 10]: 17 % UTC
- APOE RNA (% UTC) 8,000 nM [1, 10]: 12 % UTC
- APOE RNA (% UTC) 20,000 nM [1, 10]: 9 % UTC
- IC50 [1, 11]: 240 nM
- APOE RNA (% control) Cortex [2]: 49 % control
- APOE RNA (% control) Spinal Cord [2]: 27 % control

Substance: 1757575 (eA*e[5mC]eTeT*kG*kG*dT*dG[ms]dA[ms]dA[ms]dT*d[5mC]*dT*dT*dT*dA[ms]kT*eT*eA*eA; antisense) [Compound 1757575]
- APOE RNA (% UTC) ([1]; 5 nM, HepG2, electroporation, 16-hour treatment): 84 % UTC
- APOE RNA (% UTC) ([1]; 13 nM, HepG2, electroporation, 16-hour treatment): 80 % UTC
- APOE RNA (% UTC) ([1]; 33 nM, HepG2, electroporation, 16-hour treatment): 87 % UTC
- APOE RNA (% UTC) ([1]; 82 nM, HepG2, electroporation, 16-hour treatment): 78 % UTC
- APOE RNA (% UTC) ([1]; 205 nM, HepG2, electroporation, 16-hour treatment): 81 % UTC
- APOE RNA (% UTC) ([1]; 512 nM, HepG2, electroporation, 16-hour treatment): 51 % UTC
- APOE RNA (% UTC) ([1]; 1,280 nM, HepG2, electroporation, 16-hour treatment): 44 % UTC
- APOE RNA (% UTC) ([1]; 3,200 nM, HepG2, electroporation, 16-hour treatment): 37 % UTC
- APOE RNA (% UTC) ([1]; 8,000 nM, HepG2, electroporation, 16-hour treatment): 25 % UTC
- APOE RNA (% UTC) ([1]; 20,000 nM, HepG2, electroporation, 16-hour treatment): 15 % UTC
- IC50 ([1]; HepG2, electroporation, 16-hour treatment): 940 nM
- APOE RNA (% control) Cortex [2]: 33 % control
- APOE RNA (% control) Spinal Cord [2]: 21 % control
- APOE RNA (% control) Cortex ([3]; ICV dose 10 μg): 100 % control
- APOE RNA (% control) Cortex ([3]; ICV dose 30 μg): 82 % control
- APOE RNA (% control) Cortex ([3]; ICV dose 100 μg): 88 % control
- APOE RNA (% control) Cortex ([3]; ICV dose 300 μg): 51 % control
- APOE RNA (% control) Cortex ([3]; ICV dose 700 μg): 30 % control
- ED 50 (μg) Cortex [3]: 337.5 µg
- APOE RNA (% control) Spinal Cord ([3]; ICV dose 10 μg): 82 % control
- APOE RNA (% control) Spinal Cord ([3]; ICV dose 30 μg): 48 % control
- APOE RNA (% control) Spinal Cord ([3]; ICV dose 100 μg): 40 % control
- APOE RNA (% control) Spinal Cord ([3]; ICV dose 300 μg): 28 % control
- APOE RNA (% control) Spinal Cord ([3]; ICV dose 700 μg): 51 % control
- ED 50 (μg) Spinal Cord [3]: 84.6 µg

Substance: 1693105: 6-10-4 MOE gapmer CTTGGTGAATCTTTATTAAA, linkages sosssszzzssssszssss (e[5mC]*eTeT*eG*eG*eT*dG[ms]dA[ms]dA[ms]dT*d[5mC]*dT*dT*dT*dA[ms]dT*eT*eA*eA*eA) [compound 1693105]
- APOE RNA (% control) Cortex [2]: 65 % control
- APOE RNA (% control) Spinal Cord [2]: 44 % control
- APOE RNA (% control) Cortex ([3]; ICV dose 10 μg): 100 % control
- APOE RNA (% control) Cortex ([3]; ICV dose 30 μg): 85 % control
- APOE RNA (% control) Cortex ([3]; ICV dose 100 μg): 77 % control
- APOE RNA (% control) Cortex ([3]; ICV dose 300 μg): 59 % control
- APOE RNA (% control) Cortex ([3]; ICV dose 700 μg): 48 % control
- ED 50 (μg) Cortex [3]: 573.3 µg
- APOE RNA (% control) Spinal Cord ([3]; ICV dose 10 μg): 71 % control
- APOE RNA (% control) Spinal Cord ([3]; ICV dose 30 μg): 71 % control
- APOE RNA (% control) Spinal Cord ([3]; ICV dose 100 μg): 47 % control
- APOE RNA (% control) Spinal Cord ([3]; ICV dose 300 μg): 49 % control
- APOE RNA (% control) Spinal Cord ([3]; ICV dose 700 μg): 61 % control
- ED 50 (μg) Spinal Cord [3]: 892.8 µg

Substance: 1785598: modified oligonucleotide complementary to human APOE RNA (k[5mC]*kT*kT*dG[ms]dG[ms]dT[ms]dG[ms]dA[ms]dA[ms]dT*d[5mC]*dT*dT*dT*dA*dT[ms]kT*kA*dA[ms]kA; antisense) [compound 1785598]
- APOE RNA (% UTC) 5 nM [1, 4]: 112 % UTC
- APOE RNA (% UTC) 13 nM [1, 5]: 109 % UTC
- APOE RNA (% UTC) 33 nM [1, 6]: 110 % UTC
- APOE RNA (% UTC) 82 nM [1, 7]: 95 % UTC
- APOE RNA (% UTC) 205 nM [1, 8]: 70 % UTC
- APOE RNA (% UTC) 512 nM [1, 9]: 73 % UTC
- APOE RNA (% UTC) 1,280 nM [1, 10]: 33 % UTC
- APOE RNA (% UTC) 3,200 nM [1, 10]: 21 % UTC
- APOE RNA (% UTC) 8,000 nM [1, 10]: 8 % UTC
- APOE RNA (% UTC) 20,000 nM [1, 10]: 9 % UTC
- IC50 [1, 11]: 840 nM
- APOE RNA (% control) Cortex [2]: 36 % control
- APOE RNA (% control) Spinal Cord [2]: 24 % control
- APOE RNA (% control) Cortex ([3]; ICV dose 10 μg): 104 % control
- APOE RNA (% control) Cortex ([3]; ICV dose 30 μg): 84 % control
- APOE RNA (% control) Cortex ([3]; ICV dose 100 μg): 60 % control
- APOE RNA (% control) Cortex ([3]; ICV dose 300 μg): 37 % control
- APOE RNA (% control) Cortex ([3]; ICV dose 700 μg): 23 % control
- ED 50 (μg) Cortex [3]: 175.4 µg
- APOE RNA (% control) Spinal Cord ([3]; ICV dose 10 μg): 97 % control
- APOE RNA (% control) Spinal Cord ([3]; ICV dose 30 μg): 70 % control
- APOE RNA (% control) Spinal Cord ([3]; ICV dose 100 μg): 65 % control
- APOE RNA (% control) Spinal Cord ([3]; ICV dose 300 μg): 60 % control
- APOE RNA (% control) Spinal Cord ([3]; ICV dose 700 μg): 41 % control
- ED 50 (μg) Spinal Cord [3]: 416.7 µg

Substance: 1785617: modified oligonucleotide complementary to human APOE RNA (k[5mC]*dT[ms]dT[ms]kG*dG[ms]kT*dG[ms]dA[ms]dA[ms]dT[ms]d[5mC]*dT*dT*dT*dA*dT*kT*kA*dA[ms]kA; antisense) [compound 1785617]
- APOE RNA (% UTC) 5 nM [1, 4]: 91 % UTC
- APOE RNA (% UTC) 13 nM [1, 5]: 104 % UTC
- APOE RNA (% UTC) 33 nM [1, 6]: 93 % UTC
- APOE RNA (% UTC) 82 nM [1, 7]: 83 % UTC
- APOE RNA (% UTC) 205 nM [1, 8]: 93 % UTC
- APOE RNA (% UTC) 512 nM [1, 9]: 50 % UTC
- APOE RNA (% UTC) 1,280 nM [1, 10]: 47 % UTC
- APOE RNA (% UTC) 3,200 nM [1, 10]: 18 % UTC
- APOE RNA (% UTC) 8,000 nM [1, 10]: 27 % UTC
- APOE RNA (% UTC) 20,000 nM [1, 10]: 11 % UTC
- IC50 [1, 11]: 950 nM
- APOE RNA (% control) Cortex [2]: 37 % control
- APOE RNA (% control) Spinal Cord [2]: 28 % control

Substance: 1778128: modified oligonucleotide complementary to human APOE RNA (eA*e[5mC]eTeTkGkG*dT*dG[ms]dA[ms]dA*dT*d[5mC]*dT*dT*dT*dA[ms]kTeT*eA*eA; antisense) [compound 1778128]
- APOE RNA (% UTC) 5 nM [1, 4]: 81 % UTC
- APOE RNA (% UTC) 13 nM [1, 5]: 83 % UTC
- APOE RNA (% UTC) 33 nM [1, 6]: 66 % UTC
- APOE RNA (% UTC) 82 nM [1, 7]: 53 % UTC
- APOE RNA (% UTC) 205 nM [1, 8]: 39 % UTC
- APOE RNA (% UTC) 512 nM [1, 9]: 28 % UTC
- APOE RNA (% UTC) 1,280 nM [1, 10]: 22 % UTC
- APOE RNA (% UTC) 3,200 nM [1, 10]: 9 % UTC
- APOE RNA (% UTC) 8,000 nM [1, 10]: 8 % UTC
- APOE RNA (% UTC) 20,000 nM [1, 10]: 5 % UTC
- IC50 [1, 11]: 100 nM
- APOE RNA (% control) Cortex [2]: 34 % control
- APOE RNA (% control) Spinal Cord [2]: 22 % control
